Experimental data: ChEMBL document CHEMBL3046027, “In vitro and in vivo antifungal activity of synthetic pure isothiocyanates against Sclerotinia sclerotiorum” (Pest Manag Sci, 2011)

Tests used:
Sclerotinia sclerotiorum [1] = assay: Antifungal activity against Sclerotinia sclerotiorum assessed as inhibition of mycelial growth in contact phase at 708 umol/l measured at 20 degC after 5 days; type: functional; details: 120 h, read-out: GI
Sclerotinia sclerotiorum [2] = assay: Fungistatic activity in Sclerotinia sclerotiorum assessed as inhibition of mycelial growth in contact phase at 2358 umol/l measured at 20 degC after 5 days relative to control; type: functional; details: 120 h, read-out: GI
Sclerotinia sclerotiorum [3] = assay: Antifungal activity against Sclerotinia sclerotiorum assessed as inhibition of germination in volatile phase at 786 umol/l measured at 20 degC after 5 days; type: functional; details: 120 h
Sclerotinia sclerotiorum [4] = assay: Antifungal activity against Sclerotinia sclerotiorum assessed as inhibition of mycelial growth in volatile phase at 393 umol/l measured at 20 degC after 5 days; type: functional; details: 120 h, read-out: GI
Sclerotinia sclerotiorum [5] = assay: Fungistatic activity in Sclerotinia sclerotiorum assessed as inhibition of carpogenic germination in volatile phase at 393 umol/l measured at 20 degC after 5 days relative to control; type: functional; details: 120 h
Sclerotinia sclerotiorum [6] = assay: Fungistatic activity in Sclerotinia sclerotiorum assessed as viability in volatile phase at 786 umol/l measured at 20 degC after 5 days relative to control; type: functional; details: 120 h, read-out: GI
Sclerotinia sclerotiorum [7] = assay: Fungistatic activity in Sclerotinia sclerotiorum assessed as inhibition of carpogenic germination in volatile phase at 786 umol/l measured at 20 degC after 5 days relative to control; type: functional; details: 120 h
Sclerotinia sclerotiorum [8] = assay: Antifungal activity against Sclerotinia sclerotiorum assessed as inhibition of mycelial growth in volatile phase at 550 umol/l measured at 20 degC after 5 days; type: functional; details: 120 h, read-out: GI
Sclerotinia sclerotiorum [9] = assay: Antifungal activity against Sclerotinia sclerotiorum assessed as inhibition of mycelial growth in contact phase at 786 umol/l measured at 20 degC after 5 days; type: functional; details: 120 h, read-out: GI
Sclerotinia sclerotiorum [10] = assay: Antifungal activity against Sclerotinia sclerotiorum assessed as inhibition of germination in volatile phase at 79 umol/l measured at 20 degC after 5 days; type: functional; details: 120 h
Sclerotinia sclerotiorum [11] = assay: Antifungal activity against Sclerotinia sclerotiorum assessed as inhibition of mycelial growth in contact phase at 550 umol/l measured at 20 degC after 5 days; type: functional; details: 120 h, read-out: GI
Sclerotinia sclerotiorum [12] = assay: Fungistatic activity in Sclerotinia sclerotiorum assessed as inhibition of mycelial growth in volatile phase measured at 20 degC after 5 days; type: functional, organism-based; details: 120 h
Sclerotinia sclerotiorum [13] = assay: Antifungal activity against Sclerotinia sclerotiorum assessed as inhibition of mycelial growth in volatile phase at 786 umol/l measured at 20 degC after 5 days; type: functional; details: 120 h, read-out: GI
Sclerotinia sclerotiorum [14] = assay: Fungistatic activity in Sclerotinia sclerotiorum assessed as sclerotial viability measured at 20 degC after 5 days; type: functional, organism-based; details: 120 h
Sclerotinia sclerotiorum [15] = assay: Antifungal activity against Sclerotinia sclerotiorum assessed as inhibition of germination in volatile phase at 236 umol/l measured at 20 degC after 5 days; type: functional; details: 120 h
Sclerotinia sclerotiorum [16] = assay: Antifungal activity against Sclerotinia sclerotiorum assessed as inhibition of mycelial growth in volatile phase at 39 umol/l measured at 20 degC after 5 days; type: functional; details: 120 h, read-out: GI
Sclerotinia sclerotiorum [17] = assay: In vivo antifungal Sclerotinia sclerotiorum in Pepper (Capsicum annuum L. cv. Sera Demre) assessed as inhibition of mycelial growth in volatile phase at 158 umol/L measured after 10 to 14 weeks; type: functional
Sclerotinia sclerotiorum [18] = assay: Antifungal activity against Sclerotinia sclerotiorum assessed as inhibition of germination in volatile phase at 39 umol/l measured at 20 degC after 5 days; type: functional; details: 120 h
Sclerotinia sclerotiorum [19] = assay: Antifungal activity against Sclerotinia sclerotiorum assessed as inhibition of germination in volatile phase at 393 umol/l measured at 20 degC after 5 days; type: functional; details: 120 h
Sclerotinia sclerotiorum [20] = assay: Antifungal activity against Sclerotinia sclerotiorum assessed as inhibition of mycelial growth in volatile phase at 79 umol/l measured at 20 degC after 5 days; type: functional; details: 120 h, read-out: GI
Sclerotinia sclerotiorum [21] = assay: Fungistatic activity in Sclerotinia sclerotiorum assessed as inhibition of mycelial growth in contact phase measured at 20 degC after 5 days; type: functional, organism-based; details: 120 h
Sclerotinia sclerotiorum [22] = assay: Antifungal activity against Sclerotinia sclerotiorum assessed as inhibition of mycelial growth in contact phase at 1572 umol/l measured at 20 degC after 5 days; type: functional; details: 120 h, read-out: GI
Sclerotinia sclerotiorum [23] = assay: Antifungal activity against Sclerotinia sclerotiorum assessed as inhibition of mycelial growth in contact phase at 2358 umol/l measured at 20 degC after 5 days; type: functional; details: 120 h, read-out: GI
Sclerotinia sclerotiorum [24] = assay: Fungistatic activity in Sclerotinia sclerotiorum assessed as inhibition of mycelial growth in volatile phase at 550 umol/l measured at 20 degC after 5 days relative to control; type: functional; details: 120 h, read-out: GI
Sclerotinia sclerotiorum [25] = assay: Fungistatic activity in Sclerotinia sclerotiorum assessed as inhibition of carpogenic germination in volatile phase at 79 umol/l measured at 20 degC after 5 days relative to control; type: functional; details: 120 h
Sclerotinia sclerotiorum [26] = assay: In vivo antifungal Sclerotinia sclerotiorum in Pepper (Capsicum annuum L. cv. Sera Demre) assessed as inhibition of mycelial growth in volatile phase at 79 umol/L measured after 10 to 14 weeks; type: functional

`CCN=C=S` [ETHYL ISOTHIOCYANATE] gave an inhibition of growth at 708 µM (Sclerotinia sclerotiorum [1]) of 56.2%, an inhibition of growth at 2358 µM (Sclerotinia sclerotiorum [2]) of 100% and an inhibition at 786 µM (Sclerotinia sclerotiorum [3]) of 100%. For the same compound, the inhibition of growth at 393 µM (Sclerotinia sclerotiorum [4]) was 56%, the inhibition at 393 µM (Sclerotinia sclerotiorum [5]) was 62.5% and the inhibition of growth at 786 µM (Sclerotinia sclerotiorum [6]) was 100%. It also gave an inhibition at 786 µM (Sclerotinia sclerotiorum [7]) of 87.5%, an inhibition of growth at 550 µM (Sclerotinia sclerotiorum [8]) of 100% and an inhibition of growth at 786 µM (Sclerotinia sclerotiorum [9]) of 69.5%. The inhibition at 79 µM (Sclerotinia sclerotiorum [10]) was 26.7%, the inhibition of growth at 550 µM (Sclerotinia sclerotiorum [11]) was 34.2% and the EC50 (Sclerotinia sclerotiorum [12]) was 157 µM. It also gave an inhibition of growth at 786 µM (Sclerotinia sclerotiorum [13]) of 100%, an EC50 (Sclerotinia sclerotiorum [14]) of 212 µM and an inhibition at 236 µM (Sclerotinia sclerotiorum [15]) of 46.7%. It also gave an inhibition of growth at 39 µM (Sclerotinia sclerotiorum [16]) of 5%, an inhibition in vivo at 158 µM (Sclerotinia sclerotiorum [17]) of 70% and an inhibition at 39 µM (Sclerotinia sclerotiorum [18]) of 0%. The inhibition at 393 µM (Sclerotinia sclerotiorum [19]) was 66.7%, the inhibition of growth at 79 µM (Sclerotinia sclerotiorum [20]) was 30.8% and the EC50 (Sclerotinia sclerotiorum [21]) was 653 µM. For the same compound, the inhibition of growth at 1572 µM (Sclerotinia sclerotiorum [22]) was 81.5%, the inhibition of growth at 2358 µM (Sclerotinia sclerotiorum [23]) was 100% and the inhibition of growth at 550 µM (Sclerotinia sclerotiorum [24]) was 100%. For the same compound, the inhibition at 79 µM (Sclerotinia sclerotiorum [25]) was 52.5% and the inhibition in vivo at 79 µM (Sclerotinia sclerotiorum [26]) was 38.3%.
